In the test the target is T1, COX-1 (Sus scrofa, UniProt A0A287ANF9).
T1 construct: A platelet suspension obtained from pig's blood is preincubated with the test substance; endogenous in cells; host or cells: platelets from pig's blood
Kind of test: In-vitro test for COX-1 inhibition: fluorimetric quantification of malonaldehyde (MDA) in A23187-activated pig platelet suspension. The test is classed as cell-based. The settings on record: pig platelets. As for the experimental part:
In-vitro Test Procedure for the Determination of COX-1 Inhibition
The inhibition of the cyclooxygenase pathway is carried out by fluorimetric quantification of malonaldehyde (MA). This condenses in the acidic medium with twice the molar amount of thiobarbituric acid to give a red pigment dye, which has a fluorescence at λExcitation: 533 nm, λEmission: 550 nm.
A platelet suspension obtained from pig's blood is preincubated with the test substance for 10 min at 37° C. The concentration of the suspension should be 8×10^8 cells/ml. The arachidonic acid cascade is then activated by addition of the antibiotic calcium ionophore A23187 ([…]). After a further 10 min at 37° C., the reaction is stopped using a trichloroacetic acid solution. The samples are centrifuged and the supernatant is incubated with thiobarbituric acid for 30 min at 70° C. After cooling (30 min at room temperature), the samples are measured fluorimetrically at 533/550 nm and the IC50 values of the test compounds are determined therefrom by means of a calibration curve.

[1] abbreviates: Table 7, arylamides, read-out: MDA pIC50 (converted).
Where [2] appears, read: Table 8, arylsulfonamides, read-out: MDA IC50.
Setting [3] is: Table 2, sulfanylacetamides, read-out: MDA pIC50 (converted).
The mark [4] stands for this setting: Table 7, arylamides, read-out: MDA IC50.
Setting [5] is: Table 9, alkylamides, read-out: MDA IC50.
Where [6] appears, read: Table 12, naphthylsulfonamides, read-out: MDA pIC50 (converted).
Setting [7] is: Table 9, alkylamides, read-out: MDA pIC50 (converted).
Setting [8] is: Table 1, carbamic acid thioesters, read-out: MDA IC50.

Where two headings read alike, the source gives them in different places.

T1 sequence (A0A287ANF9 25-600): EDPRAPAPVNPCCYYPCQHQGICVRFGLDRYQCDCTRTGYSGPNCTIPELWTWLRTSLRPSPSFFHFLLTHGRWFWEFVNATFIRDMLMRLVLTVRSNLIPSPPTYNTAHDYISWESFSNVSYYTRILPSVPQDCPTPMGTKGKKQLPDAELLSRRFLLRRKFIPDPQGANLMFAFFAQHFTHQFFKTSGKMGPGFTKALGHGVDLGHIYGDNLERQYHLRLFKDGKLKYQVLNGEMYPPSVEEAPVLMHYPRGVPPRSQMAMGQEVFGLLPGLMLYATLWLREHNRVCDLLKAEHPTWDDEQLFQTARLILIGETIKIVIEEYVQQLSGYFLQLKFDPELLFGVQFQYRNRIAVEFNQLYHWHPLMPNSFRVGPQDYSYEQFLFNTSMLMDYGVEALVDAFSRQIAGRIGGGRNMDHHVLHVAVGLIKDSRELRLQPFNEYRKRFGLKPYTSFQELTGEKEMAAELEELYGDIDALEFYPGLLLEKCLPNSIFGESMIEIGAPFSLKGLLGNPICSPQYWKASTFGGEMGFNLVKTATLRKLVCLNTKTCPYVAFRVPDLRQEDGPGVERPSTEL

Take `COc1ccc(-c2[nH]c(SCCNC(=O)c3ccccc3)nc2-c2ccc(Cl)cc2)cc1` [Compound T110, N^1-{2-[4-(4-Chlorophenyl)-5-(4-methoxyphenv)-1H-imidazol-2-yl-sufanyl]ethyl}benzamide]: the IC50 under setting [1] is 3310 nM. On to `COc1ccc(-c2nc(SCCNS(=O)(=O)c3ccc(C)cc3)[nH]c2-c2ccc(OC)cc2)cc1` [Compound T24, N^1-{2-[4,5-Bis(4-methoxyphenyl)-1H-imidazol-2-ylsufanyl]ethyl}-4-methylbenzenesulfonamide], for which the IC50 under setting [2] came out at 48 nM. Turning to `COc1ccc(-c2nc(SCC(=O)Nc3ccccc3)[nH]c2-c2ccc(OC)cc2)cc1` [Compound T9, N^1-Phenyl-2-[4,5-bis(4-methoxyphenyl)-1H-imidazol-2-ylsufanyl]acetamide], the IC50 under setting [3] is 34.7 nM.

Consider `COc1ccc(-c2nc(SCCNC(=O)c3cccc4ccccc34)[nH]c2-c2ccc(OC)cc2)cc1` [Compound T55, N^1-{2-[4,5-Bis(4-methoxyphenyl)-1H-imidazol-2-ylsulfanyl]ethyl}-1-naphthamide], for which the IC50 (Table 11, heteroaryl- and naphthylamides, read-out: MDA IC50) was 560 nM.

Take `COc1ccc(-c2nc(SCCNC(=O)c3cccc(Cl)c3)[nH]c2-c2ccc(OC)cc2)cc1` [Compound T33, N^1-{2-[4,5-Bis(4-methoxyphenyl)-1H-imidazol-2-ylsufanyl]ethyl}-3-chlorobenzamide]: the “MDA pIC50” value (Table 7, arylamides) is 6.03 M. Further, the IC50 under setting [4] was 930 nM. For `COc1ccc(-c2nc(SCCNC(=O)c3cc(OC)c(OC)c(OC)c3)[nH]c2-c2ccc(OC)cc2)cc1` [Compound T46, N^1-{2-[4,5-Bis(4-methoxyphenyl)-1H-imidazol-2-ylsufanyl]ethyl}-3,4,5-trimethoxybenzamide], the IC50 was 640 nM under setting [4] and 603 nM under setting [1]. As for `COc1ccc(-c2nc(SCCNC(=O)c3ccc(C(C)(C)C)cc3)[nH]c2-c2ccc(OC)cc2)cc1` [Compound T48, N^1-{2-[4,5-Bis(4-methoxyphenyl)-1H-imidazol-2-ylsufanyl]ethyl}-4-(tert-butyl)benzamide], the IC50 under setting [4] is 82 nM.

As to `CCC(=O)NCCSc1nc(-c2ccc(OC)cc2)c(-c2ccc(OC)cc2)[nH]1` [Compound T50], the IC50 under setting [5] is 47 nM. For `COc1ccc(-c2nc(SCCNS(=O)(=O)c3ccc(F)cc3)[nH]c2-c2ccc(OC)cc2)cc1` [Compound T20, N^1-{2-[4,5-Bis(4-methoxyphenyl)-1H-imidazol-2-ylsufanyl]ethyl}-4-fluorobenzenesulfonamide], under setting [2], the IC50 came out at 60 nM.

In the case of `COc1ccc(-c2nc(SCCNS(=O)(=O)c3ccc4ccccc4c3)[nH]c2-c2ccc(OC)cc2)cc1` [Compound T68, N^1-{2-[4,5-Bis(4-methoxyphenyl)-1H-imidazol-2-ylsulfanyl]ethyl}-naphthalene-2-sulfonamide], the IC50 under setting [6] is 129 nM. As to `COc1ccc(-c2nc(SCCNS(=O)(=O)c3cccc4ccccc34)[nH]c2-c2ccc(OC)cc2)cc1` [Compound T67, N^1-{2-[4,5-Bis(4-methoxyphenyl)-1H-imidazol-2-ylsulfanyl]ethyl}-naphthalene-1-sulfonamide], the IC50 under setting [6] is 380 nM. Consider `COc1ccc(-c2nc(SCCNC(=O)CCc3ccccc3)[nH]c2-c2ccc(OC)cc2)cc1` [Compound T60, N^1-{2-[4,5-Bis(4-methoxyphenyl)-1H-imidazol-2-ylsulfanyl]ethyl}-3-phenylpropanamide], for which the IC50 was 150 nM under setting [5] and 151 nM under setting [7]. `COc1ccc(-c2nc(SCCNC(=O)C(C)(C)C)[nH]c2-c2ccc(OC)cc2)cc1` [Compound T52, N^1-{2-[4,5-Bis(4-methoxyphenyl)-1H-imidazol-2-ylsulfanyl]ethyl}-2,2-dimethylpropanamide]: the IC50 under setting [7] was 417 nM. Turning to `O=C(NCCSc1nc(-c2ccc(Cl)cc2)c(-c2ccccc2)[nH]1)c1ccccc1` [Compound T106, N^1-{2-[4-(4-Chlorophenyl)-5-phenyl-1H-imidazol-2-ylsufanyl]ethyl}benzamide], the IC50 under setting [4] is 900 nM. As to `COc1ccc(-c2nc(SC(=O)N(C)C)[nH]c2-c2ccc(OC)cc2)cc1` [Compound T1, [4,5-Bis(4-methoxyphenyl)-1H-imidazol-2-yl]-N,N-dimethylcarbamic acid thioester], the IC50 under setting [8] worked out at 71 nM.

For the compound `CCN(CC)C(=O)NCCSc1nc(-c2ccc(OC)cc2)c(-c2ccc(OC)cc2)[nH]1` [Compound T58, N^1-{2-[4,5-Bis(4-methoxyphenyl)-1H-imidazol-2-ylsulfanyl]ethyl}-N′,N′-diethylurea], the IC50 (Table 13, urea derivatives, read-out: MDA IC50) was 50 nM. As to `COc1ccc(-c2nc(SCCNC(=O)c3ccc(Cl)cc3Cl)[nH]c2-c2ccc(OC)cc2)cc1` [Compound T35, N^1-{2-[4,5-Bis(4-methoxyphenyl)-1H-imidazol-2-ylsufanyl]ethyl}-2,4-dichlorobenzamide], the IC50 under setting [1] is 151 nM. As for `COc1ccc(-c2nc(SCC(=O)Nc3ccc(Cl)cc3)[nH]c2-c2ccc(OC)cc2)cc1` [Compound T10, N^1-(4-Chlorophenyl)-2-[4,5-bis(4-methoxyphenyl)-1H-imidazol-2-yl-sufanyl]acetamide], under setting [3], the IC50 was 209 nM. Regarding `COc1ccc(-c2nc(SCCNC(=O)c3ccccc3Cl)[nH]c2-c2ccc(OC)cc2)cc1` [Compound T34, N^1-{2-[4,5-Bis(4-methoxyphenyl)-1H-imidazol-2-ylsufanyl]ethyl}-2-chlorobenzamide], the IC50 under setting [4] amounted to 62 nM. In the case of `COc1ccc(-c2nc(SCCNS(C)(=O)=O)[nH]c2-c2ccc(OC)cc2)cc1` [Compound T63, N^1-{2-[4,5-Bis(4-methoxyphenyl)-1H-imidazol-2-ylsulfanyl]ethyl}-methanesulfonamide], the IC50 (Table 10, alkylsulfonamides, read-out: MDA IC50) was found to be 76 nM.

For `CCS(=O)(=O)NCCSc1nc(-c2ccc(OC)cc2)c(-c2ccc(OC)cc2)[nH]1` [Compound T64, N^1-{2-[4,5-Bis(4-methoxyphenyl)-1H-imidazol-2-ylsulfanyl]ethyl}-ethanesulfonamide], the IC50 (Table 10, alkylsulfonamides, read-out: MDA pIC50 (converted)) was 38.9 nM. `COc1ccc(-c2nc(SCCN(C)C)[nH]c2-c2ccc(OC)cc2)cc1` [Compound T14, N,N-Dimethyl-[4,5-bis(4-methoxyphenyl)-1H-imidazol-2-ylsulfanyl]-ethanamine]: the “MDA pIC50” value (Table 3, amines) amounted to 5.49 M. For the same compound, the IC50 (Table 3, amines, read-out: MDA IC50) came out at 3200 nM.

For `COc1ccc(C(=O)NCCSc2nc(-c3ccc(OC)cc3)c(-c3ccc(OC)cc3)[nH]2)cc1` [Compound T45, N^1-{2-[4,5-Bis(4-methoxyphenyl)-1H-imidazol-2-ylsufanyl]ethyl}-4-methoxybenzamide], the IC50 under setting [1] is 1000 nM.

Turning to `O=C(NCCSc1nc(-c2ccc(Cl)cc2)c(-c2ccc(Cl)cc2)[nH]1)c1ccccc1` [Compound T85, N^1-{2-[4,5-Bis(4-chlorophenyl)-1H-imidazol-2-ylsufanyl]ethyl}benzamide], under setting [4], the IC50 amounted to 450 nM. As to `COc1ccc(-c2nc(SCCNS(=O)(=O)c3c(C)cc(C)cc3C)[nH]c2-c2ccc(OC)cc2)cc1` [Compound T25, N^1-{2-[4,5-Bis(4-methoxyphenyl)-1H-imidazol-2-ylsufanyl]ethyl}-2,4,6-trimethylbenzenesulfonamide], the IC50 (Table 8, arylsulfonamides, read-out: MDA pIC50 (converted)) is 324 nM. Turning to `O=C(NCCSc1nc(-c2ccc(F)cc2)c(-c2ccc(F)cc2)[nH]1)c1ccccc1` [Compound T98, N^1-{2-[4,5-Bis(4-fluorophenyl)-1H-imidazol-2-ylsufanyl]ethyl}benzamide], under setting [1], the IC50 was 1000 nM. As for `COc1ccc(-c2nc(SCCN)[nH]c2-c2ccc(OC)cc2)cc1` [Compound T15, 2-[4,5-Bis(4-methoxyphenyl)-1H-imidazol-2-ylsufanyl]ethanamine], for the setting “Table 3, amines, read-out: MDA pIC50 (converted)”, the IC50 is 776 nM. Take `COc1ccc(-c2nc(SCCNC(=O)c3ccccc3)[nH]c2-c2ccc(OC)cc2)cc1` [Compound T28, N^1-{2-[4,5-Bis(4-methoxyphenyl)-1H-imidazol-2-ylsufanyl]ethyl}benzamide]: the IC50 under setting [4] was 540 nM. Regarding `COc1ccc(-c2nc(SC(=O)N(C(C)C)C(C)C)[nH]c2-c2ccc(OC)cc2)cc1` [Compound T3, [4,5-Bis(4-methoxyphenyl)-1H-imidazol-2-yl]-N,N-diisopropylcarbamic acid thioester], for the setting “Table 1, carbamic acid thioesters, read-out: MDA pIC50 (converted)”, the IC50 is 12 nM. `COc1ccc(-c2nc(SCCNC(=O)Cc3ccccc3)[nH]c2-c2ccc(OC)cc2)cc1` [Compound T59, N^1-{2-[4,5-Bis(4-methoxyphenyl)-1H-imidazol-2-ylsulfanyl]ethyl}-2-phenylacetamide]: under setting [5], the IC50 came out at 54 nM. On to `CN(C)C(=O)Sc1nc(-c2ccc(Cl)cc2)c(-c2ccccc2)[nH]1` [Compound T103, [4-(4-Chlorophenyl)-5-phenyl-1H-imidazol-2-yl]-N,N-dimethylcarbamic acid thioester], for which the IC50 under setting [8] amounted to 7300 nM. As to `COc1ccc(-c2nc(SCCNC(=O)c3ccc(C#N)cc3)[nH]c2-c2ccc(OC)cc2)cc1` [Compound T39, N^1-{2-[4,5-Bis(4-methoxyphenyl)-1H-imidazol-2ylsulfanyl]ethyl}-4-cyanobenzamide], the IC50 under setting [1] is 141 nM.

Values taken from patent US7223781B2 (Beiersdorf AG, priority 2001, dated 2007).
